≈ marks a conversion by molar mass, not a printed value.
Key:
Staph. albus SS 03 = format: cell-based; settings: Brain Heart Infusion, estolate and RV11-RV15 previously hydrolized, unit assumed
Staph. albus SS 04 = format: cell-based; settings: Brain Heart Infusion, estolate and RV11-RV15 previously hydrolized, unit assumed
Staph. aureus SS 07 [1] = format: cell-based; settings: Brain Heart Infusion, estolate and RV11-RV15 previously hydrolized, unit assumed
Staph. aureus SS 08 = format: cell-based; settings: Brain Heart Infusion, estolate and RV11-RV15 previously hydrolized, unit assumed
Staph. aureus SS 09 = format: cell-based; settings: Brain Heart Infusion, estolate and RV11-RV15 previously hydrolized, unit assumed
Staph. aureus SS 10 = format: cell-based; settings: Brain Heart Infusion, estolate and RV11-RV15 previously hydrolized, unit assumed
[2] = tested on: Strept. haemolyticus SS 17; format: cell-based; settings: Brain Heart Infusion, estolate and RV11-RV15 previously hydrolized, unit assumed
[3] = tested on: Strept. haemolyticus SS 18; format: cell-based; settings: Brain Heart Infusion, estolate and RV11-RV15 previously hydrolized, unit assumed
Strept. faecalis SS 19 = format: cell-based; settings: Brain Heart Infusion, estolate and RV11-RV15 previously hydrolized, unit assumed
S. lutea ATCC 9341 = format: cell-based; settings: Brain Heart Infusion, estolate and RV11-RV15 previously hydrolized, unit assumed
B. subtilis ATCC 6633 = format: cell-based; settings: Brain Heart Infusion, estolate and RV11-RV15 previously hydrolized, unit assumed
B. subtilis SS 127 = format: cell-based; settings: Brain Heart Infusion, estolate and RV11-RV15 previously hydrolized, unit assumed
B. cereus ATCC 11778 = format: cell-based; settings: Brain Heart Infusion, estolate and RV11-RV15 previously hydrolized, unit assumed
B. anthranis SS 08 = format: cell-based; settings: Brain Heart Infusion, estolate and RV11-RV15 previously hydrolized, unit assumed
Br. melitensis SS 19 = format: cell-based; settings: unit assumed
Br. abortus SS 7 = format: cell-based; settings: Brain Heart Infusion, estolate and RV11-RV15 previously hydrolized, unit assumed
Citrobacter SS 05 = format: cell-based; settings: Brain Heart Infusion, estolate and RV11-RV15 previously hydrolized, unit assumed
Citrobacter SS 09 = format: cell-based; settings: Brain Heart Infusion, estolate and RV11-RV15 previously hydrolized, unit assumed
S. infantis SS 08 = format: cell-based; settings: Brain Heart Infusion, estolate and RV11-RV15 previously hydrolized, unit assumed
S. heidelberg SS 18 = format: cell-based; settings: Brain Heart Infusion, estolate and RV11-RV15 previously hydrolized, unit assumed
E. cloacae SS 07 = format: cell-based; settings: Brain Heart Infusion, estolate and RV11-RV15 previously hydrolized, unit assumed
Ps. aeruginosa SS 10 = format: cell-based; settings: Brain Heart Infusion, estolate and RV11-RV15 previously hydrolized, unit assumed
E. coli SS 04 = format: cell-based; settings: Brain Heart Infusion, estolate and RV11-RV15 previously hydrolized, unit assumed
E. coli SS 05 = format: cell-based; settings: Brain Heart Infusion, estolate and RV11-RV15 previously hydrolized, unit assumed
E. coli SS 06 = format: cell-based; settings: Brain Heart Infusion, estolate and RV11-RV15 previously hydrolized, unit assumed
Pr. mirabilis SS 09 = format: cell-based; settings: Brain Heart Infusion, estolate and RV11-RV15 previously hydrolized, unit assumed
Kl. aerogenes SS 71 = format: cell-based; settings: Brain Heart Infusion, estolate and RV11-RV15 previously hydrolized, unit assumed
H. tubercolosis SS 03 = format: cell-based; settings: Brain Heart Infusion, estolate and RV11-RV15 previously hydrolized, unit assumed
Source text: (§1) In the following table I the MIC/ml values are indicated corresponding to the lowest concentration capable of inducing a complete inhibition of the bacterial development.

Kl. pneumoniae SS 04 = format: cell-based; settings: Brain Heart Infusion, estolate and RV11-RV15 previously hydrolized, unit assumed
Source text: as §1

Sr. marcescens SS 03 = format: cell-based; settings: Brain Heart Infusion, estolate and RV11-RV15 previously hydrolized, unit assumed
C. diphtheriae SS 19 = format: cell-based; settings: Brain Heart Infusion, estolate and RV11-RV15 previously hydrolized, unit assumed
D. pneumoniae SS 23 [4] = format: cell-based; settings: Brain Heart Infusion, estolate and RV11-RV15 previously hydrolized, unit assumed
N. gonorreae SS 27 = format: cell-based; settings: Brain Heart Infusion, estolate and RV11-RV15 previously hydrolized, unit assumed
N. meningitidis SS 04 = format: cell-based; settings: Brain Heart Infusion, estolate and RV11-RV15 previously hydrolized, unit assumed
H. influentiae SS 02 = format: cell-based; settings: Brain Heart Infusion, estolate and RV11-RV15 previously hydrolized, unit assumed
Cl. tetani SS 17 = format: cell-based; settings: Brain Heart Infusion, estolate and RV11-RV15 previously hydrolized, unit assumed
B. anthranis SS 09 = format: cell-based; settings: B. anthranis SS 09 (14 bis); Brain Heart Infusion; estolate and RV11-RV15 previously hydrolized; unit assumed
Acute toxicity = format: in vivo; settings: mouse, in vivo, po, 14400 min
Protocol: The acute toxicity was assessed in Swiss white mice by oral and intravenous route. The LD50 values have been calculated by the methods of Probits, starting from the mortality recorded 10 days after the treatment.

Staph. aureus SS 07 [5] = assay: Experimental infection induced by Staph. aureus SS 07; format: in vivo, Swiss white mice; settings: os; Staph. aureus SS 07; mg/kg of erythromycin; survival after 7 days; 10080 min
In short: (§2)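 Swiss mice of 20 g infected parenterally with lethal amounts of Staph. aureus SS 07 or D. pneumoniae SS 23. Antibiotics were given at infection and again 6 and 24 h later. ED50 was derived from survival at 7 days.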

D. pneumoniae SS 23 [6] = assay: Experimental infection induced by D. pneumoniae SS 23; format: in vivo, Swiss white mice; settings: os; D. pneumoniae SS 23; mg/kg of erythromycin; survival after 7 days; 10080 min
In short: as §2

[7] = Mucolytic activity: obstruction of the bronchial tract after SO2 inhalation; format: in vivo, Sprague Dawley male rats; settings: oral, 500 mg/kg; SO2, 15 days
[8] = Histological examination of bronchi after SO2 inhalation; format: in vivo, Sprague Dawley male rats; settings: oral, 500 mg/kg

CCC(=O)O[C@H]1[C@H](O[C@@H]2[C@@H](C)[C@H](O[C@H]3C[C@@](C)(OC)[C@@H](O)[C@H](C)O3)[C@@H](C)C(=O)O[C@H](CC)[C@@](C)(O)[C@H](O)[C@@H](C)C(=O)[C@H](C)C[C@@]2(C)O)O[C@H](C)C[C@@H]1N(C)C [RV15, erythromycin monopropionate N-acetylcysteinate]
MIC (Staph. albus SS 03): 0.25 µg/mL (≈ 0.316 µM) | MIC (Staph. albus SS 04): 0.05 µg/mL (≈ 0.0633 µM) | MIC (Staph. aureus SS 07 [1]): 0.025 µg/mL (≈ 0.0316 µM) | MIC (Staph. aureus SS 08): 0.025 µg/mL (≈ 0.0316 µM) | MIC (Staph. aureus SS 09): 0.05 µg/mL (≈ 0.0633 µM) | MIC (Staph. aureus SS 10): 0.05 µg/mL (≈ 0.0633 µM) | MIC [2]: 1.5 µg/mL (≈ 1.9 µM) | MIC [3]: 3 µg/mL (≈ 3.8 µM) | MIC (Strept. faecalis SS 19): 0.05 µg/mL (≈ 0.0633 µM) | MIC (S. lutea ATCC 9341): 0.01 µg/mL (≈ 0.0127 µM) | MIC (B. subtilis ATCC 6633): 0.01 µg/mL (≈ 0.0127 µM) | MIC (B. subtilis SS 127): 0.025 µg/mL (≈ 0.0316 µM) | MIC (B. cereus ATCC 11778): 0.4 µg/mL (≈ 0.506 µM) | MIC (B. anthranis SS 08): 0.4 µg/mL (≈ 0.506 µM) | MIC (Br. melitensis SS 19): 3 µg/mL (≈ 3.8 µM) | MIC (Br. abortus SS 7): 6 µg/mL (≈ 7.59 µM) | MIC (Citrobacter SS 05): > 200 µg/mL | MIC (Citrobacter SS 09): > 200 µg/mL | MIC (S. infantis SS 08): 100 µg/mL (≈ 127 µM) | MIC (S. heidelberg SS 18): 100 µg/mL (≈ 127 µM) | MIC (E. cloacae SS 07): > 200 µg/mL | MIC (Ps. aeruginosa SS 10): 100 µg/mL (≈ 127 µM) | MIC (E. coli SS 04): 50 µg/mL (≈ 63.3 µM) | MIC (E. coli SS 05): 100 µg/mL (≈ 127 µM) | MIC (E. coli SS 06): 25 µg/mL (≈ 31.6 µM) | MIC (Pr. mirabilis SS 09): > 200 µg/mL | MIC (Kl. aerogenes SS 71): 100 µg/mL (≈ 127 µM) | MIC (H. tubercolosis SS 03): 50 µg/mL (≈ 63.3 µM) | MIC (Kl. pneumoniae SS 04): 100 µg/mL (≈ 127 µM) | MIC (Sr. marcescens SS 03): 200 µg/mL (≈ 253 µM) | MIC (C. diphtheriae SS 19): 0.02 µg/mL (≈ 0.0253 µM) | MIC (D. pneumoniae SS 23 [4]): 0.05 µg/mL (≈ 0.0633 µM) | MIC (N. gonorreae SS 27): 0.8 µg/mL (≈ 1.01 µM) | MIC (N. meningitidis SS 04): 0.8 µg/mL (≈ 1.01 µM) | MIC (H. influentiae SS 02): 1.5 µg/mL (≈ 1.9 µM) | MIC (Cl. tetani SS 17): 0.2 µg/mL (≈ 0.253 µM) | MIC (B. anthranis SS 09): 0.4 µg/mL (≈ 0.506 µM) | LD50 (reliability limits) (Acute toxicity): 3000 mg·kg | ED50 (reliability limits) (Staph. aureus SS 07 [5]): 2.10 (2.49-1.92) mg/kg | ED50 (reliability limits) (D. pneumoniae SS 23 [6]): 110.90 (135.28-90.92) mg/kg | Partial obstruction (% incidence) [7]: 6.66% | Total obstruction, compact plug (% incidence) [7]: 20% | Total obstruction, nodular mass (% incidence) [7]: 13.33% | Total obstruction, pimply mass (% incidence) [7]: 6.66% | histological appearance of non obstructed bronchi ([8]; free non obstructed): presence of bronchi having almost normal appearance | histological appearance of obstructed bronchial tract ([8]; obstructed): fully like that of the control animals

Reference: patent publication US4476120A, “Thiolic derivatives of erythromycin having therapeutic activity, and pharmaceutical compositions containing them” (Sigma Tau Indistrie Farmaceutiche Riunites, p.A, priority 1982, dated 1984)
